Earlier results as cited in US20080153167A1, “In vivo amplification of neural progenitor cells” (priority 2006, published 2008).

Test system: PDGF driven tumors
Conditions: Shih et al. 2004

For `Clc1ccc(Nc2nnc(Cc3ccncc3)c3ccccc23)cc1` [PTK787], the “effect on PDGF driven tumors” value is listed as “caused high-grade tumors to acquire low-grade histology, but it did not completely eradicate tumor growth”.
